Compound in assay [1]: C[C@@H]1CN(CC(=O)Nc2ccc3c(c2)Cc2cccc(-c4cc(=O)cc(N5CCOCC5)o4)c2S3)C[C@H](C)O1
In words: surviving fraction relative to DMSO-only wells; higher = less growth inhibition. The conditions noted are these: exposure time: 5 days. The method in brief: (§1)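 Surviving fraction was calculated by normalising CellTiter-Glo luminescence to the median of DMSO-only wells. Tumour cell lines in log phase were seeded in 384-well plates at 250–500 cells per well, and 24 hours later were exposed continuously for five days to inhibitors at 0.5, 1, 5, 10, 50, 100, 500 and 1000 nM.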

Compound in the next assay: Cc1cn(-c2cc(NC(=O)c3ccc(C)c(Nc4nccc(-c5cccnc5)n4)c3)cc(C(F)(F)F)c2)cn1 [NILOTINIB]
Described as above. The conditions noted are these: exposure time: 5 days. The method in brief:
as §1

± gives the standard deviation of the averaged measurements.

Consider MDAMB453 BREAST, for which the surviving fraction was 1.02 ± 0.027 in assay [1] (0.5 nM); 0.937 ± 0.054 in assay [1] (1 nM); 0.994 ± 0.023 in assay [1] (5 nM); 0.966 ± 0.035 in assay [1] (10 nM); 0.937 ± 0.023 in assay [1] (50 nM); 0.897 ± 0.046 in assay [1] (100 nM). Besides, the surviving fraction in assay [1] (500 nM) was 0.9723 ± 0.0063; in assay [1] (1000 nM) it was 0.988 ± 0.039; with NILOTINIB (0.5 nM), 1 ± 0.045; with NILOTINIB (1 nM), 0.998 ± 0.097; with NILOTINIB (5 nM), 1.03 ± 0.077; with NILOTINIB (10 nM), 1.05 ± 0.088. For the same test system, the surviving fraction in the assay with NILOTINIB (50 nM) was determined as 0.91 ± 0.02; with NILOTINIB (100 nM), 0.925 ± 0.016; in the assay with NILOTINIB (500 nM), 0.895 ± 0.0087; with NILOTINIB (1000 nM) it was 0.874 ± 0.068.
On to HCC1395 BREAST, for which the surviving fraction in assay [1] (0.5 nM) amounted to 0.955 ± 0.14; in assay [1] (1 nM) it was 0.962 ± 0.022; in assay [1] (5 nM) it was 0.936 ± 0.062; in assay [1] (10 nM), 0.936 ± 0.035; in assay [1] (50 nM), 0.92 ± 0.072; in assay [1] (100 nM), 0.995 ± 0.08. Further, the surviving fraction in assay [1] (500 nM) amounted to 0.919 ± 0.09; in assay [1] (1000 nM), 0.965 ± 0.12; with NILOTINIB (0.5 nM) it was 1.01 ± 0.038; with NILOTINIB (1 nM) it was 0.988 ± 0.097; in the assay with NILOTINIB (5 nM), 1.2 ± 0.074; with NILOTINIB (10 nM), 1.19 ± 0.023. Moreover, the surviving fraction came out at 1.03 ± 0.055 in the assay with NILOTINIB (50 nM), 1.03 ± 0.16 with NILOTINIB (100 nM), 0.854 ± 0.062 with NILOTINIB (500 nM) and 0.929 ± 0.14 with NILOTINIB (1000 nM).
For HOSMNG BONE, the surviving fraction in assay [1] (0.5 nM) is 1 ± 0.065; in assay [1] (1 nM), 0.944 ± 0.013; in assay [1] (5 nM) it was 0.982 ± 0.051; in assay [1] (10 nM), 0.978 ± 0.044; in assay [1] (50 nM), 1.03 ± 0.011; in assay [1] (100 nM) it was 0.9887 ± 0.0031. The surviving fraction in assay [1] (500 nM) was 1.01 ± 0.043; in assay [1] (1000 nM), 0.998 ± 0.056; with NILOTINIB (0.5 nM), 0.898 ± 0.073; with NILOTINIB (1 nM) it was 0.97 ± 0.062; in the assay with NILOTINIB (5 nM), 0.956 ± 0.044; with NILOTINIB (10 nM) it was 0.937 ± 0.039. In addition, the surviving fraction stood at 1.03 ± 0.03 with NILOTINIB (50 nM), 0.957 ± 0.064 with NILOTINIB (100 nM), 1.07 ± 0.029 with NILOTINIB (500 nM) and 1.22 ± 0.018 in the assay with NILOTINIB (1000 nM).
For the test system SG32 HEADNECK, the surviving fraction in assay [1] (0.5 nM) turned out to be 1.16 ± 0.16; in assay [1] (1 nM), 1.07 ± 0.2; in assay [1] (5 nM) it was 1.12 ± 0.18; in assay [1] (10 nM) it was 1.62 ± 0.39; in assay [1] (50 nM), 0.939 ± 0.091; in assay [1] (100 nM) it was 1.05 ± 0.047. Moreover, the surviving fraction in assay [1] (500 nM) amounted to 0.74 ± 0.11; in assay [1] (1000 nM), 0.681 ± 0.082; in the assay with NILOTINIB (0.5 nM) it was 0.984 ± 0.025; in the assay with NILOTINIB (1 nM), 0.986 ± 0.062; with NILOTINIB (5 nM), 1.16 ± 0.12; with NILOTINIB (10 nM) it was 1.24 ± 0.26. Further, the surviving fraction stood at 0.823 ± 0.21 in the assay with NILOTINIB (50 nM), 0.864 ± 0.16 with NILOTINIB (100 nM), 0.866 ± 0.039 in the assay with NILOTINIB (500 nM) and 0.834 ± 0.12 with NILOTINIB (1000 nM).
With MFM223 BREAST, the surviving fraction in assay [1] (0.5 nM) was determined as 1.17 ± 0.17; in assay [1] (1 nM), 1.2 ± 0.037; in assay [1] (5 nM), 1.17 ± 0.052; in assay [1] (10 nM), 1.19 ± 0.02; in assay [1] (50 nM), 0.935 ± 0.1; in assay [1] (100 nM), 0.869 ± 0.12. In addition, the surviving fraction in assay [1] (500 nM) is 0.885 ± 0.035; in assay [1] (1000 nM), 0.794 ± 0.1; in the assay with NILOTINIB (0.5 nM), 1.11 ± 0.085; with NILOTINIB (1 nM), 1.15 ± 0.12; in the assay with NILOTINIB (5 nM) it was 1.08 ± 0.058; with NILOTINIB (10 nM), 1.08 ± 0.056. In addition, the surviving fraction stood at 0.798 ± 0.048 in the assay with NILOTINIB (50 nM), 0.931 ± 0.15 with NILOTINIB (100 nM), 0.9 ± 0.11 with NILOTINIB (500 nM) and 0.912 ± 0.13 in the assay with NILOTINIB (1000 nM).
Regarding MDAMB134 BREAST, the surviving fraction stood at 1.04 ± 0.082 in assay [1] (0.5 nM); 0.967 ± 0.073 in assay [1] (1 nM); 0.955 ± 0.11 in assay [1] (5 nM); 0.926 ± 0.04 in assay [1] (10 nM); 0.678 ± 0.16 in assay [1] (50 nM); 0.714 ± 0.052 in assay [1] (100 nM). The surviving fraction worked out at 0.7305 ± 0.0021 in assay [1] (500 nM); 0.63 ± 0.049 in assay [1] (1000 nM); 0.803 ± 0.068 in the assay with NILOTINIB (0.5 nM); 1.15 ± 0.12 in the assay with NILOTINIB (1 nM); 0.865 ± 0.013 in the assay with NILOTINIB (5 nM); 0.808 ± 0.15 with NILOTINIB (10 nM). Moreover, the surviving fraction with NILOTINIB (50 nM) is 0.74 ± 0.12; with NILOTINIB (100 nM) it was 0.72 ± 0.099; with NILOTINIB (500 nM), 0.672 ± 0.034; with NILOTINIB (1000 nM), 0.716 ± 0.13.
As to H23 LUNG, the surviving fraction in assay [1] (0.5 nM) turned out to be 1.08 ± 0.042; in assay [1] (1 nM), 1.05 ± 0.021; in assay [1] (5 nM), 1.11 ± 0.048; in assay [1] (10 nM), 1.1 ± 0.033; in assay [1] (50 nM) it was 1.09 ± 0.083; in assay [1] (100 nM), 1.17 ± 0.056. Further, the surviving fraction in assay [1] (500 nM) was found to be 1.06 ± 0.036; in assay [1] (1000 nM), 1.05 ± 0.045; in the assay with NILOTINIB (0.5 nM) it was 1.04 ± 0.077; with NILOTINIB (1 nM), 1.05 ± 0.052; in the assay with NILOTINIB (5 nM), 1.14 ± 0.025; in the assay with NILOTINIB (10 nM) it was 1.08 ± 0.033. Further, the surviving fraction in the assay with NILOTINIB (50 nM) was determined as 1.24 ± 0.096; with NILOTINIB (100 nM), 1.26 ± 0.088; with NILOTINIB (500 nM), 1.18 ± 0.094; with NILOTINIB (1000 nM) it was 1.17 ± 0.1.

Values taken from the supplement of paper PMC6045584.
